From patent US20260263468A1 (Fundación Instituto de Investigación Sanitaria Fundación …, priority 2023, published 2026)

What was measured:
C2C12 cells = experiment: Cell proliferation assay (AlamarBlue); format: cell-based; conditions: 10^−9-10^−5 M, 24 and 48 hours
Experimental: C2C12 cells (American Type Culture Collection, ATCC, Manassas, VA, USA) were cultured in DMEM supplemented with 10% FBS and 1% penicillin-streptomycin. To induce myogenic differentiation, 70% confluence C2C12 cells were culture in DMEM containing 2% HS (horse serum). Cells were maintained in a humidified chamber at 37° C., in 95% air and 5% CO2. Media was replaced with fresh every 48h.
C2C12 cells were plated in 96-well plates (Corning, Cultek, Spain) (12.500 cells/well). Cell proliferation was measured using AlamarBlue assay according to the manufacturer's instructions, at 24 and 48 h of myogenic differentiation.

C2C12 [1] = experiment: Nucleotide concentration by HPLC during C2C12 differentiation; format: cell-based
Experimental: Supernatant and cell lysate are collected every day. Cells were lysated with a homemade buffer (1 mM phenylmethylsulfonyl fluoride, 1 mM protease inhibitor cocktail, 1 mM sodium orthovanadate, 1 mM sodium fluoride and 1 mM β-glicerophospate) and supernatant was used directly. A heat shock step was done at 98° C. for 2 min, and to avoid adenosine degradation 1 μM EHNA was added at the time of heating. All samples were centrifuged at 13000 g for 10 min at 4° C. and supernatants were collected and stored at −80° C. until use. Inosine, adenosine, AMP, ADP and ATP concentrations were determined with high performance liquid chromatography (HPLC) using a liquid chromatograph with a reversed phase column (Agilent 1100 Series Liquid Chromatography) and an UV detector set at 254 nm. Buffer composed of 0.1 mol/L KH2PO4 (pH 7.5) and 18% acetonitrile was run at 1.5 ml/min for 20 min. Compounds were identified and quantified by their retention times and peak areas of known standards, calibrated by spectrophotometry. […] The results have been corrected and expressed as mean±SEM. All results were calculated as a percentage of controls without differentiation state.

C2C12 [2] = experiment: Western blot of adenosine receptors, P2X7 and Panx-1 during differentiation; format: cell-based; conditions: 1 μM
Experimental: (§1) Cells were lysed with RIPA buffer and protein concentration was determined by BCA. […] Variations in intensity were expressed as % of basal (day 0) and expressed as mean±SEM. All results were calculated as a percentage of non-differentiated controls to minimize the intrinsic variation among different experiments.
The expression of adenosine receptors, P2X7 receptor and Panx-1 channel was analyzed during myoblast differentiation.

C2C12 [3] = experiment: cAMP concentration (ELISA); format: cell-based; conditions: myoblast, 1 μM, 5 minutes; control 0.58±0.13
Experimental: CAMP concentration was measured using the colorimetric cAMP ELISA kit following manufacture protocol for acetylated cell lysates (Cell Biolabs, San Diego, USA). Absorbance was measured at 450 nm using a microplate reader Tecan Spark 20M.
The CAMP signaling cascade has been linked to a delay in the onset of age-related muscle loss.

C2C12 [4] = experiment: Western blot of phosphorylated AMPK; format: cell-based; conditions: 1 μM each, day 4; control 1.29±0.27%
Experimental: as §1
We next studied if these changes in AMP/ATP ratio had any effect in AMPK activation.

C2C12 [5] = experiment: AMPK phosphorylation assay kit (short time points); format: cell-based; conditions: myoblast, 1 μM, 10 min after switching to 2% HS; control 1.97±0.17
Experimental: Assay was performed with the AMPK phosphorilation assay kit (Abnova Corporation, Jhouzih St, Taiwan) as manufactor instructions and pAMPK was measured at λex/em 530/585 nm and 360/450 nm for total protein with Tecan Infinite.

[6] = test system: K/B×N serum transfer-induced arthritis; experiment: Motor activity tests in K/B×N serum transfer arthritis; format: in vivo, C57BL/6 mice
Experimental: Physical activity tests were performed to assess the motor development of the mice during the arthritic process as follows:
Ambulation in 12-week-old male C57BL/6 mice was recorded following the protocol described by Gibbs and Crosbie-Watson (2). Mice were placed in individual recording chambers and were allowed to freely move for 6 min. Distance traveled by each animal was determined using object tracking in Kinovea open-source video analysis software (V 0.9.5).
The coordinated motor function of the four limbs was evaluated with the rotarod test (Rotarod, Harvard Apparatus, USA) with male C57BL/6 mice at the age of 12-week-old. Burgos et al. protocol was followed with modifications (76). Mice were first familiarized with the rotarod by letting them stay for 120s on the rod rotating at 4 and 6 rotations per minute (rpm). Motor activity was assessed by training the mice with an accelerated rotarod protocol of three trials, during which the rod accelerated from 4 rpm to 40 rpm within 5 min.
Ambulation in 12-week-old male C57BL/6 mice was recorded following the protocol described by Gibbs and Crosbie-Watson (see references in ref. 44). Mice were placed in individual recording chambers and were allowed to freely move for 6 min. Distance traveled by each animal was determined using object tracking in Kinovea open-source video analysis software (V 0.9.5).
The Grip Strength Meter (Ugo Basile, #47200) was utilized to assess the grip strength peak of the forelimbs. The mouse held onto a bar, and the highest force exerted during the pull was measured in grams using a digital force transducer. In the test, the mouse gripped a bar attached to the force gauge. Next, an investigator pulled the mouse's tail backward. The gauge recorded tension at the moment the mouse released its forepaws from the bar.
The coordinated motor function of the four limbs was evaluated with the rotarod test (Rotarod, Harvard Apparatus, USA) with male C57BL/6 mice at the age of 12-week-old. Burgos et al. protocol was followed with modifications (see references in ref. 44). Mice were first familiarized with the rotarod by letting them stay for 120s on the rod rotating at 4 and 6 rotations per minute (rpm). Motor activity was assessed by training the mice with an accelerated rotarod protocol of three trials, during which the rod accelerated from 4 rpm to 40 rpm within 5 min.

[7] = test system: K/B×N serum transfer-induced arthritis; experiment: Serum CRP ELISA and serum cytokine array; format: in vivo, C57BL/6J mice; conditions: arthritic mice + dipyridamole
Experimental: For this purpose, they performed an array of protein expression of pro- and anti-inflammatory cytokines and chemokines in serum by using the Mouse Cytokine Array Q1 (RayBiotech, EEUU) which, simultaneously, detects 20 cytokines. The cytokines concentration was measured by fluorescence using GenePix following manufacture protocol for serum samples.
CRP concentration was measured using the colorimetric Mouse CRP ELISA kit following manufacture protocol for serum samples (Crystal Chem, USA). Absorbance was measured at 450 nm using a microplate reader Tecan Spark 20M.
Serum CRP were determined by Mouse CRP ELISA Kit (Crystal Chem, #80634), according to the instructions of the manufacturer. Absorbance was measured at 450 nm using a microplate reader Tecan Spark 20M.
The cytokines concentration was measured by fluorescence using GenePix 4000B following manufacture protocol for serum and frozen samples. Serum samples were used at 2-fold sample dilution. Frozen gastronemius were crushed using a mortar and a pestle cooled with liquid nitrogen. Next, gastronemius were homogenized in a sonicator and the protein isolated in the supernatant quantified with BCA assay. We used 100 μL (1 mg/ml) of total gastronemius protein for cytokine and chemokine array assay.

[8] = Body composition by DXA scan; format: in vivo, C57BL/6J mice; conditions: healthy mice, dipy treatment alone, 2 weeks
Experimental: Previously to arthritis induction and sacrifice day, all mice underwent DXA scan. For DXA analysis, a Lunar PIXImus densitometer (software version 2.10) was calibrated using a hydroxyapatite phantom provided by the manufacturer (Lunar Corp, Madison, WI). Subsequently, mice were anesthetized and whole-body scans were conducted. Data analysis consisted of whole-body lean mass, fat mass, bone mineral density and bone mineral content. […] Previously to arthritis induction and sacrifice day, all mice underwent DXA scan. For DXA analysis, a Lunar PIXImus densitometer (software version 2.10) was calibrated using a hydroxyapatite phantom provided by the manufacturer (Lunar Corp, Madison, WI). Subsequently, mice were anesthetized and whole-body scans were conducted. Data analysis consisted of whole-body lean mass, fat mass, bone mineral density and bone mineral content.

[9] = mice, dipyridamole 25 mg/Kg/day with tenofovir; cited from earlier work

In the case of `OCCN(CCO)c1nc(N2CCCCC2)c2nc(N(CCO)CCO)nc(N3CCCCC3)c2n1` [dipyridamole, 2,6-bis(Diethanolamino)-4,8-dipiperidinopyrimido[5,4-d]pyrimidine], the Proliferation (C2C12 cells) is reported as “No significant changes”, the “Extracellular ATP” value (C2C12 [1]; 1 μM each, day 4, control 14.7±0.5) is reported as “did not modify” and the Intracellular adenosine (C2C12 [1]; 1 μM, day 4, control 10.87±0.73) is reported as 13.76 ± 1.13 nM. For the same compound, the Intracellular inosine (C2C12 [1]; 1 μM, day 4, control 11.07±0.54) was 14.17 ± 1.75 nM, the “Intracellular AMP” value (C2C12 [1]; 1 μM, day 4, control 12.10±0.73) was 18.53 ± 1.13 nM and the Extracellular adenosine (C2C12 [1]; 1 μM, day 4 of differentiation, control 11.6±0.81) was 17.33 ± 0.47 nM. For the same compound, the “A3 receptor protein expression” value (C2C12 [2]; compared to control) was “did not change”, the “P2X7 protein expression (% of basal)” value (C2C12 [2]; day 4) was 202±46% and the cAMP levels (C2C12 [3]) was 0.85±0.17. The “pAMPK (Western blot)” value (C2C12 [4]) was 2.66±0.7%, the AMPK activation (C2C12 [5]) was 2.89±0.29 and the “Ambulatory activity: distance travelled” value ([6]; arthritic mice + dipyridamole, 2 weeks, arthritic 830±37, sham 1393±187) was 1203±53 cm. For the same compound, the “Two limb hanging test average score” value ([6]; arthritic mice + dipyridamole, arthritic 3.6±3.3, sham 12±3) was 9.8±2, the “Rotarod latency to fall” value ([6]; arthritic mice + dipyridamole, arthritic 43.3±5.4, sham 75.9±3.3) was 73.3±10.9 seg and the “Motor tests (ambulatory activity, grip strength, two limb hanging, rotarod)” value ([6]; healthy mice, dipy alone vs sham) was “behave similar”. It also gave a Serum IL-9 ([7]; arthritic 4.3±1.8) of 13.1 ± 2.6 pg/mL, a Serum VEGF ([7]; arthritic 90±13.1) of 221 ± 40.3 pg/mL and a Serum IL-10 ([7]; arthritic 117.6±5.2) of 166 ± 10 pg/mL. For the same compound, the “Serum CRP” value ([7]; arthritic 4098±560, sham 2861±893) was 3543 ± 586 ng/mL, the “Body composition (DXA)” value [8] was “did not produced alterations in body composition” and the “Body weight (tenofovir-induced loss)” value [9] was “recovered”.
